In ChEMBL document CHEMBL3734743, “Potent complement C3a receptor agonists derived from oxazole amino acids: Structure-activity relationships” (Bioorg Med Chem Lett, 2015):
The source made the active and inactive calls. No cut-off for these calls is given here.

Tests used:
[1] = biological target: T1, C3a anaphylatoxin chemotactic receptor (Homo sapiens) (UniProt Q16581); test: Displacement of [125I]-C3a from C3aR in human MDM cells at 10 uM after 60 mins by microbeta scintillation counting analysis; format: cell-based
T1 sequence (whole entry): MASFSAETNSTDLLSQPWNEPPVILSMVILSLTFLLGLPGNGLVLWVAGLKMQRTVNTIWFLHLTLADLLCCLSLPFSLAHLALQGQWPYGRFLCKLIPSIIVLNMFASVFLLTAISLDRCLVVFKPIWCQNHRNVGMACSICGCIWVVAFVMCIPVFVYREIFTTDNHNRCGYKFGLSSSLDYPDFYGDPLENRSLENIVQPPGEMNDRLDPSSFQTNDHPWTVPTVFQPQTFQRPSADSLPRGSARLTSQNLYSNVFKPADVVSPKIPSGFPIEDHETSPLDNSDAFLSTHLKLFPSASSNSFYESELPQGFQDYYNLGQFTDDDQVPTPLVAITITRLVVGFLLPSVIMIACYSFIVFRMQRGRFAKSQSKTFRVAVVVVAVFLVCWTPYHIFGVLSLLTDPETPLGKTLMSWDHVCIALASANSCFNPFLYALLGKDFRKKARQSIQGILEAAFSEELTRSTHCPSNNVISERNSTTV

[2] = biological target: T2, C5a anaphylatoxin chemotactic receptor 1 (Homo sapiens) (UniProt P21730); test: Displacement of [125I]-C5a from C5aR in human MDM cells at 20 uM after 60 mins by microbeta scintillation counting analysis; format: cell-based
T2 sequence (whole entry): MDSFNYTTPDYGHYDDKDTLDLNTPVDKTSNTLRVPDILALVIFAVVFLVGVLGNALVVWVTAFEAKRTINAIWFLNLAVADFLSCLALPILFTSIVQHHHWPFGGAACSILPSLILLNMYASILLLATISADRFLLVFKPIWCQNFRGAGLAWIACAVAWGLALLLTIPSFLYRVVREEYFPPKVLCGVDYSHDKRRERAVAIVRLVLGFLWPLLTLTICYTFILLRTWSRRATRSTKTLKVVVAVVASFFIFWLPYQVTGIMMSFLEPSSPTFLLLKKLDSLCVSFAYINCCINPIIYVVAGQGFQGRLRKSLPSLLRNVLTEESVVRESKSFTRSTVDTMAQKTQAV

[3] = biological target: T1, C3a anaphylatoxin chemotactic receptor (Homo sapiens); test: Agonist activity at C3aR in human MDM cells assessed as induction of intracellular Ca2+ release measured for 60 secs in presence of C3a antagonist SB290157 by fluorescence assay; format: functional, cell-based
[4] = biological target: T1, C3a anaphylatoxin chemotactic receptor (Homo sapiens); test: Agonist activity at C3aR in human MDM cells assessed as intracellular calcium efflux at 1 uM measured for 60 secs by fluorescence based receptor desensitization assay; format: functional, cell-based
[5] = biological target: T3, C3a anaphylatoxin chemotactic receptor (Homo sapiens, UniProt Q16581); test: Agonist activity at C3aR in human MDM cells assessed as inhibition of C3a-induced Ca2+ response measured for 60 secs by fluorescence assay; format: functional, cell-based
T3 sequence (Q16581 whole entry): T1 sequence (whole entry)

[6] = biological target: T3, C3a anaphylatoxin chemotactic receptor; test: Displacement of [125I]-C3a from C3aR in human MDM cells after 60 mins by microbeta scintillation counting analysis; format: cell-based

## CC(C)C[C@H](NC(=O)OC(C)(C)C)c1nc(C(=O)N[C@@H](CCCNC(N)=O)C(=O)O)co1
[1]
  inhibition: inactive
[2]
  inhibition: inactive

## CC[C@H](C)[C@H](NC(=O)c1cncc(Br)c1)c1nc(C(=O)NCCCCNC(=N)N)c(C)o1
[1]
  inhibition: inactive
[2]
  inhibition: inactive

## Cc1oc([C@H](CC(C)C)NC(=O)OC(C)(C)C)nc1C(=O)N[C@@H](CCCNC(=N)N)C(=O)O
[3]
  Activity: inactive
[4]
  Activity: inactive
[5]
  EC50: 0.045 µM
[2]
  inhibition: inactive
[6]
  IC50: 0.014 µM

## CC(C)C[C@H](NC(=O)c1c[nH]c2ccccc12)c1nc(C(=O)N[C@@H](CCCNC(=N)N)C(=O)O)co1
[3]
  Activity: inactive
[4]
  Activity: inactive
[2]
  inhibition: inactive

## CC[C@H](C)[C@H](NC(=O)c1ccc2ccccc2n1)c1nc(C(=O)N[C@@H](CCCNC(=N)N)C(=O)O)co1
[4]
  Activity: inactive
[5]
  EC50: 0.041 µM
[2]
  inhibition: inactive
[6]
  IC50: 0.123 µM
